From patent publication US8354403B2, “Pyrrolidine derived beta 3 adrenergic receptor agonists” (Merck Sharp & Dohme Corp., priority 2009, dated 2013)

Target: T1, human β3 adrenergic receptor (Homo sapiens, UniProt P13945)
T1 construct: expressed in transfected cells; host or cells: Chinese hamster ovary (CHO) cells, stably transfected
Test: Beta-3 agonist in vitro functional assay: cAMP production (LANCE TR-FRET) in CHO cells stably transfected with the cloned β3 receptor
Type: cell-based
Conditions: Human β3 agonist functional activity
Summary of the method: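 CHO cells stably expressing the cloned receptor, in HEPES-buffered HBSS with BSA and 0.6 mM IBMX, 6,000 cells/well, exposed to compound for 30 min at RT. cAMP read by LANCE TR-FRET against a cAMP standard curve. Isoproterenol defines maximal stimulation.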

T1 sequence (P13945 whole entry): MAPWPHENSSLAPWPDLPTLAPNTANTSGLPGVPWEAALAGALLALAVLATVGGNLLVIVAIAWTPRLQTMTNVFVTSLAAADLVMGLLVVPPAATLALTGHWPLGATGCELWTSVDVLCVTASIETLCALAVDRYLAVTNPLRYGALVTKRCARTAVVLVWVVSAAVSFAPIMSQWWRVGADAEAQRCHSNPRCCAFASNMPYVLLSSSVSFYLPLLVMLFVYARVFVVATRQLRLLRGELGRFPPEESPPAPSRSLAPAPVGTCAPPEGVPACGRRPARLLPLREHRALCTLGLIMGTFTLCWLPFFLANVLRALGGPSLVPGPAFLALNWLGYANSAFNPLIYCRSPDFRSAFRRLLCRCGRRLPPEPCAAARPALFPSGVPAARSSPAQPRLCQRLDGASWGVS

Compound | EC50
O=C(c1ccc(C[C@@H]2CC[C@H]([C@H](O)c3ccccc3)N2)cc1)N1CCc2c(O)noc2C1 [Example 54] | 100 to 999 nM

Same assay, conditions: Table 4; cAMP, CHO cells; read-out: Human β3 agonist functional activity

EC50 | Compound
10 to 99.9 nM | O=C(c1ccc(C[C@@H]2CC[C@H]([C@H](O)c3ccccc3)N2)cc1)N1CCCC2(CCOC2=O)C1 (stereo partly shown) [Example 40]
100 to 999 nM | Cn1ncc2c1CN(C(=O)c1ccc(C[C@@H]3CC[C@H]([C@H](O)c4ccccc4)N3)cc1)C2 [Example 28]
1 to 9.9 nM | O=C(c1ccc(C[C@@H]2CC[C@H]([C@H](O)c3ccccc3)N2)cc1)N1CCC2c3ccccc3OC2C1 (stereo partly shown) [Example 56]
10 to 99.9 nM | O=C(c1ccc(C[C@@H]2CC[C@H]([C@H](O)c3cccnc3)N2)cc1)N1CCC2Oc3ccccc3OC2C1 (stereo partly shown) [Example 59]
10 to 99.9 nM | O=C(c1ccc(C[C@@H]2CC[C@H]([C@H](O)c3ccccc3)N2)cc1)N1CCC2(CCOC2=O)C1 (stereo partly shown) [Example 13]
10 to 99.9 nM | CCOC(=O)C1CCCN(C(=O)c2ccc(C[C@@H]3CC[C@H]([C@H](O)c4ccccc4)N3)cc2)C1 (stereo partly shown) [Example 31]
100 to 999 nM | O=C(c1ccc(C[C@@H]2CC[C@H]([C@H](O)c3ccccc3)N2)cc1)N1CCCC2(CCCNC2=O)C1 (stereo partly shown) [Example 39]
1 to 9.9 nM | O=C(c1ccc(C[C@@H]2CC[C@H]([C@H](O)c3ccccc3)N2)cc1)N1CC2CCC(C1)C2n1cnnn1 (stereo partly shown) [Example 63]
100 to 999 nM | O=C(c1ccc(C[C@@H]2CC[C@H]([C@H](O)c3ccccc3)N2)cc1)N1CCCC(c2nc3ccccc3[nH]2)C1 (stereo partly shown) [Example 34]

Same assay, conditions: Table 5; cAMP, CHO cells; read-out: Human β3 agonist functional activity

Compound | EC50
O=C(c1ccc(C[C@@H]2CC[C@H]([C@H](O)c3ccccc3)N2)cc1)N1CCC(c2nc3ccccc3o2)CC1 [Example 78] | 100 to 999 nM
O=C(c1ccc(C[C@@H]2CC[C@H]([C@H](O)c3ccccc3)N2)cc1)N1CCC(c2nn[nH]n2)CC1 [Example 105] | 10 to 99.9 nM
O=C(c1ccc(C[C@@H]2CC[C@H]([C@H](O)c3ccccc3)N2)cc1)N1CCC(N2Cc3ccccc3NC2=O)CC1 [Example 72] | 100 to 999 nM
Cc1ccc(S(=O)(=O)C2CCN(C(=O)c3ccc(C[C@@H]4CC[C@H]([C@H](O)c5cccnc5)N4)cc3)CC2)cc1 [Example 135] | 100 to 999 nM

Continued, values first:

EC50 | Compound
10 to 99.9 nM | O=C(c1ccc(C[C@@H]2CC[C@H]([C@H](O)c3ccccc3)N2)cc1)N1CCC(S(=O)(=O)C2CCCC2)CC1 [Example 126]
100 to 999 nM | O=C(O)c1cc(OC2CCN(C(=O)c3ccc(C[C@@H]4CC[C@H]([C@H](O)c5ccccc5)N4)cc3)CC2)no1 [Example 160]
100 to 999 nM | Cn1cc(C2CCN(C(=O)c3ccc(C[C@@H]4CC[C@H]([C@H](O)c5ccccc5)N4)cc3)CC2)nn1 [Example 97]

Same assay, conditions: Table 7; cAMP, CHO cells; ranges as given for Tables 6 and 7; read-out: Human β3 agonist functional activity

EC50 | Compound
< 1 nM | O=C(OCc1ccccc1)C1C2CN(C(=O)c3ccc(C[C@@H]4CC[C@H]([C@H](O)c5ccccc5)N4)cc3)CC21 (stereo partly shown) [Example 229]

Same assay, conditions: Table 8; Beta-3 agonist in vitro functional assay; read-out: Human β3 agonist functional activity

Compound | EC50
O=C(c1ccc(C[C@@H]2CC[C@H]([C@H](O)c3ccccc3)N2)cc1)N1CCC2(CC1)C(=O)NCC2c1ccccn1 (stereo partly shown) [Example 266] | 1 to 9.9 nM
O=C(c1ccc(C[C@@H]2CC[C@H]([C@H](O)c3ccccc3)N2)cc1)N1CCC2(CC1)C(=O)Nc1ccccc12 [Example 299] | 10 to 99.9 nM
O=C(c1ccc(C[C@@H]2CC[C@H]([C@H](O)c3ccccc3)N2)cc1)N1CCC(O)(Cc2ccccc2)CC1 [Example 245] | 10 to 99.9 nM
CC1(C)COC(=O)C12CCN(C(=O)c1ccc(C[C@@H]3CC[C@H]([C@H](O)c4ccccc4)N3)cc1)CC2 [Example 298] | 1 to 9.9 nM
O=C1CC2(CCN(C(=O)c3ccc(C[C@@H]4CC[C@H]([C@H](O)c5cccnc5)N4)cc3)CC2)Sc2ccccc21 [Example 327] | 10 to 99.9 nM
COc1ccc2c(c1)C(=O)CC1(CCN(C(=O)c3ccc(C[C@@H]4CC[C@H]([C@H](O)c5cccnc5)N4)cc3)CC1)S2 [Example 329] | 10 to 99.9 nM
O=C(c1ccc(C[C@@H]2CC[C@H]([C@H](O)c3ccccc3)N2)cc1)N1CCC2(CC1)OCC[S+]2[O-] (stereo partly shown) [Example 304] | 100 to 999 nM
O=C1NCC2(CCN(C(=O)c3ccc(C[C@@H]4CC[C@H]([C@H](O)c5ccccc5)N4)cc3)CC2)O1 [Example 272] | 100 to 999 nM
O=C1OC2(CCN(C(=O)c3ccc(C[C@@H]4CC[C@H]([C@H](O)c5ccccc5)N4)cc3)CC2)c2scnc21 [Example 289] | 10 to 99.9 nM
O=C1CC2(CCN(C(=O)c3ccc(C[C@@H]4CC[C@H]([C@H](O)c5ccccc5)N4)cc3)CC2)S(=O)(=O)c2sccc21 [Example 340] | 1 to 9.9 nM

Further lines, results first:

EC50 | Compound
1 to 9.9 nM | O=C(c1ccc(C[C@@H]2CC[C@H]([C@H](O)c3ccccc3)N2)cc1)N1CCC2(CCCC2=O)CC1 [Example 316]
100 to 999 nM | O=C(c1ccc(C[C@@H]2CC[C@H]([C@H](O)c3ccccc3)N2)cc1)N1CCC2(CCCC2O)CC1 (stereo partly shown) [Example 314]

Same assay, conditions: Table 9; Beta-3 agonist in vitro functional assay; read-out: Human β3 agonist functional activity

EC50 | Compound
10 to 99.9 nM | O=C(c1ccc(C[C@@H]2CC[C@H]([C@H](O)c3ccccc3)N2)cc1)N1CCN(c2nccs2)CC1 [Example 378]
1 to 9.9 nM | CC(c1ccccn1)N1CCN(C(=O)c2ccc(CC3CCC(C(O)c4ccccc4)N3)cc2)CC1 (stereo not shown) [Example 430]
10 to 99.9 nM | CC(C)C(c1ccccn1)N1CCN(C(=O)c2ccc(C[C@@H]3CC[C@H]([C@H](O)c4ccccc4)N3)cc2)CC1 (stereo partly shown) [Example 419]
100 to 999 nM | Cn1ccnc1CN1CCN(C(=O)c2ccc(C[C@@H]3CC[C@H]([C@H](O)c4ccccc4)N3)cc2)CC1 [Example 396]
10 to 99.9 nM | CC(C)Oc1cccnc1CN1CCN(C(=O)c2ccc(C[C@@H]3CC[C@H]([C@H](O)c4ccccc4)N3)cc2)CC1 [Example 415]
100 to 999 nM | CC(=O)N1CCN(C(=O)c2ccc(C[C@@H]3CC[C@H]([C@H](O)c4ccccc4)N3)cc2)CC1 [Example 343]
100 to 999 nM | O=C(c1ccc(C[C@@H]2CC[C@H]([C@H](O)c3ccccc3)N2)cc1)N1CCN(c2ncccn2)CC1 [Example 370]
10 to 99.9 nM | O=C(c1ccc(C[C@@H]2CC[C@H]([C@H](O)c3ccccc3)N2)cc1)N1CCN(Cc2ccncn2)CC1 [Example 427]

Same assay, conditions: Table 10; Beta-3 agonist in vitro functional assay; read-out: Human β3 agonist functional activity

EC50 | Compound
10 to 99.9 nM | CC(C(=O)NCC(C)(C)O)N1CCN(C(=O)c2ccc(C[C@@H]3CC[C@H]([C@H](O)c4ccccc4)N3)cc2)CC1 (stereo partly shown) [Example 443]
10 to 99.9 nM | CC(C(=O)N1CCCC2(CCCO2)C1)N1CCN(C(=O)c2ccc(C[C@@H]3CC[C@H]([C@H](O)c4ccccc4)N3)cc2)CC1 (stereo partly shown) [Example 497]
100 to 999 nM | CCN(CC)C(=O)C(C)N1CCN(C(=O)c2ccc(C[C@@H]3CC[C@H]([C@H](O)c4ccccc4)N3)cc2)CC1 (stereo partly shown) [Example 516]
10 to 99.9 nM | CC(C(=O)NCC(=O)N1CCCC1)N1CCN(C(=O)c2ccc(C[C@@H]3CC[C@H]([C@H](O)c4ccccc4)N3)cc2)CC1 (stereo partly shown) [Example 460]
1 to 9.9 nM | CC(C(=O)NCC1CCC1)N1CCN(C(=O)c2ccc(C[C@@H]3CC[C@H]([C@H](O)c4ccccc4)N3)cc2)CC1 (stereo partly shown) [Example 452]
10 to 99.9 nM | CC(C)[C@@H](C)NC(=O)C(C)N1CCN(C(=O)c2ccc(C[C@@H]3CC[C@H]([C@H](O)c4ccccc4)N3)cc2)CC1 (stereo partly shown) [Example 441]
100 to 999 nM | CC(C)CN(C)C(=O)C(C)N1CCN(C(=O)c2ccc(C[C@@H]3CC[C@H]([C@H](O)c4ccccc4)N3)cc2)CC1 (stereo partly shown) [Example 518]
100 to 999 nM | CC(C(=O)N1Cc2cncnc2C1)N1CCN(C(=O)c2ccc(C[C@@H]3CC[C@H]([C@H](O)c4ccccc4)N3)cc2)CC1 (stereo partly shown) [Example 483]
10 to 99.9 nM | CC(C(=O)NCc1cn2ccsc2n1)N1CCN(C(=O)c2ccc(C[C@@H]3CC[C@H]([C@H](O)c4ccccc4)N3)cc2)CC1 (stereo partly shown) [Example 467]

Same assay, conditions: Table 11; cAMP, CHO cells; read-out: Human β3 agonist functional activity

EC50 | Compound
100 to 999 nM | O=C(c1ccc(C[C@@H]2CC[C@H]([C@H](O)c3ccccc3)N2)cc1)N1CC2CC1CN2Cc1ccccn1 (stereo partly shown) [Example 534]
100 to 999 nM | O=C1CN(C(=O)c2ccc(C[C@@H]3CC[C@H]([C@H](O)c4ccccc4)N3)cc2)CCN1Cc1ccccn1 [Example 545]
100 to 999 nM | C[C@@H]1CN(Cc2ccccn2)CCN1C(=O)c1ccc(C[C@@H]2CC[C@H]([C@H](O)c3ccccc3)N2)cc1 [Example 529]

Compound | EC50
CC(c1ccccn1)N1C2CCC1CN(C(=O)c1ccc(CC3CCC(C(O)c4ccccc4)N3)cc1)C2 (stereo not shown) [Example 539] | 10 to 99.9 nM

Same assay, conditions: Table 12; human β3 functional activity given as ranges; read-out: Human β3 agonist functional activity

Compound | EC50
O=C(c1ccc(CC2CCC(C(O)c3ccccc3)N2)cc1)N1CCN(C2CCN(c3ccccc3)C2=O)CC1 (single isomer, unassigned) [Example 606] | 10 to 99.9 nM
O=C(c1ccc(CC2CCC(C(O)c3cccnc3)N2)cc1)N1CCC2(CC1)C(=O)NCC2c1ccc(F)cc1 (single isomer, unassigned) [Example 555] | 1 to 9.9 nM

Second part, the molecule after the results:

EC50 | Compound
1 to 9.9 nM | CC(c1ncccc1Cl)N1CCN(C(=O)c2ccc(CC3CCC(C(O)c4ccccc4)N3)cc2)CC1 (single isomer, unassigned) [Example 594]
1 to 9.9 nM | O=C1OCCC1N1CCN(C(=O)c2ccc(CC3CCC(C(O)c4ccccc4)N3)cc2)CC1 (single isomer, unassigned) [Example 604]
10 to 99.9 nM | CC(c1ncco1)N1CCN(C(=O)c2ccc(CC3CCC(C(O)c4ccccc4)N3)cc2)CC1 (single isomer, unassigned) [Example 584]

Same assay, conditions: Table 13; human Beta-3 agonist functional activity given as range; read-out: Human β3 agonist functional activities

EC50 | Compound
1 to 9.9 nM | O=C(c1ccc(C[C@@H]2CC[C@H]([C@H](O)c3ccccc3)N2)c(Br)c1)N1CC2C(C1)C2n1cnnn1 (stereo partly shown) [Example 609]

Same assay, conditions: given as a range; cAMP, CHO cells; read-out: human β3 functional activity

EC50 | Compound
10 to 99.9 nM | O=C(c1ccc(C[C@@H]2CC[C@H]([C@H](O)c3ccccc3)N2)cc1)N1CCC(n2cccn2)CC1 [Example 64, (R)-phenyl[(2R,5S)-5-(4-{[4-(1H-pyrazol-1-yl)-piperidin-1-yl]carbonyl}benzyl)pyrrolidine-2-yl]methanol]
